Tests used:
[1] = molecular target: T1, M1 muscarinic receptor (Homo sapiens, UniProt P11229); assay: Functional mobilization of intracellular calcium (FLIPR) in M1-CHO cells; assay type: cell-based; details: M1 receptor, calcium mobilization; for Emax: read-out: M1 Efficacy
T1 construct: expressed in transfected cells; host or cells: CHO (M1-CHO)
T1 sequence (P11229 1-460): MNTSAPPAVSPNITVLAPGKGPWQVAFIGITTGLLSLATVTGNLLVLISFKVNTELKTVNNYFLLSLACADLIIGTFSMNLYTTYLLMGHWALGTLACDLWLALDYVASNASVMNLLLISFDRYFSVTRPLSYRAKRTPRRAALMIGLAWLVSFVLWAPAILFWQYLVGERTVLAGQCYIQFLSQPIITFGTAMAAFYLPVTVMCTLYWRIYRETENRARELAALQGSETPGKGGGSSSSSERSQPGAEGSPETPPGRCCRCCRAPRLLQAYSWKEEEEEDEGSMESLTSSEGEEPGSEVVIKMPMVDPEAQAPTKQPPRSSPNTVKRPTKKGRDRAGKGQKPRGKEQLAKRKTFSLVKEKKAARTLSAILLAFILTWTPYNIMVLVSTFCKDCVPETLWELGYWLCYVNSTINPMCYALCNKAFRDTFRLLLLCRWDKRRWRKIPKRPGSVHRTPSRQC
In short: (§1)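 Steps: seed M1- or M4-CHO cells 18-24 hrs ahead; load calcium dye with 1 mM probenecid; add test compound (0.5% DMSO final), either alone for agonism or 15 min before EC80 carbachol for inhibition; record FLIPR fluorescence for 60 sec.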

[2] = molecular target: T2, M4 muscarinic receptor (Homo sapiens, UniProt P08173); assay: Functional mobilization of intracellular calcium (FLIPR) in M4-CHO cells; assay type: cell-based; details: M4 receptor, calcium mobilization; for Emax: read-out: M4 Efficacy
T2 construct: expressed in transfected cells; host or cells: CHO (M4-CHO)
T2 sequence (P08173 1-479): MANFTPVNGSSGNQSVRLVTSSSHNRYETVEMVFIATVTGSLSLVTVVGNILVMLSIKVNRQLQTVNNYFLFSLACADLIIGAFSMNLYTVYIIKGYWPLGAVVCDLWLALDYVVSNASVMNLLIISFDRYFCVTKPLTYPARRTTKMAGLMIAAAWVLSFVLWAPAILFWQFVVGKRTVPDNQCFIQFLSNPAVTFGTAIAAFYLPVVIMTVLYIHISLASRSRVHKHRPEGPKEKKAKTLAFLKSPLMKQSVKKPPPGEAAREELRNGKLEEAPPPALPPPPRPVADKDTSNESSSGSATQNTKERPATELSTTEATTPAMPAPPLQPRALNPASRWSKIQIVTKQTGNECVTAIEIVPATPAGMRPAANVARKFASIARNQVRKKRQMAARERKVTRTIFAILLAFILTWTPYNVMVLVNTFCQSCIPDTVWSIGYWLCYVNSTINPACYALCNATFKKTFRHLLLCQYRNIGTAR
In short: as §1

Compound | M1 Activity [1] | Emax [1] | M4 Activity [2] | Emax [2]
CCOC(=O)N1CCC(N2CCC3(CC2)CN(C(C)=O)c2ccc(-c4ccncc4)cc23)CC1 [compound 105] | xx (activity was measured to be between 0.1 μM and 1.0 μM) | < 65% | x (activity was measured to be greater than 1.0 μM) | < 65%
COCCOC(=O)N1C2CCC1CC(N1CCC3(CC1)CN(C(=O)OC1CCC1)c1ccc(F)cc13)C2 (centres unmarked) [compound 106] | xxx (activity was measured to be less than 0.1 μM) | 65 to 85% | xx (activity was measured to be between 0.1 μM and 1.0 μM) | < 65%
CCOC(=O)N1CCC(CN2CCC3(CC2)COc2ccc(F)cc23)CC1 [compound 107] | xxx (activity was measured to be less than 0.1 μM) | 65 to 85% | x (activity was measured to be greater than 1.0 μM) | < 65%
CC(C)OC(=O)N1C2CCC1CC(N1CCC3(CC1)CN(C(=O)N(C)C)c1ccc(F)cc13)C2 (centres unmarked) [compound 108] | xxx (activity was measured to be less than 0.1 μM) | 65 to 85% | xx (activity was measured to be between 0.1 μM and 1.0 μM) | < 65%
CCOC(=O)N1C2CCC1CC(N1CCC3(CC1)CNc1ccc(C)cc13)C2 (centres unmarked) [compound 109] | xxx (activity was measured to be less than 0.1 μM) | 65 to 85% | xx (activity was measured to be between 0.1 μM and 1.0 μM) | < 65%
c1ccc2c(c1)NCC21CCN(CC2CC3CCC2C3)CC1 (centres unmarked) [compound 110] | xxx (activity was measured to be less than 0.1 μM) | < 65% | xx (activity was measured to be between 0.1 μM and 1.0 μM) | < 65%
Fc1ccc2c(c1)C1(CCN(C3CCC4CCC3C4)CC1)CN2 (centres unmarked) [compound 111] | xxx (activity was measured to be less than 0.1 μM) | 65 to 85% | xx (activity was measured to be between 0.1 μM and 1.0 μM) | < 65%
O=C(O[C@@H]1CCOC1)N1CC2(CCN(C3CC4CCC(C3)N4C(=O)O[C@@H]3CCOC3)CC2)c2cc(F)ccc21 (some centres unmarked) [compound 112] | xxx (activity was measured to be less than 0.1 μM) | 65 to 85% | xx (activity was measured to be between 0.1 μM and 1.0 μM) | < 65%
CCOC(=O)N1CCC(N2CCC3(CC2)CN(C(C)=O)c2ccc(F)cc23)C1 (centres unmarked) [compound 113] | xxx (activity was measured to be less than 0.1 μM) | 65 to 85% | x (activity was measured to be greater than 1.0 μM) | < 65%
CCCOC(=O)N1CC2(CCN(C3CCN(C(=O)OCC)CC3)CC2)c2cc(F)ccc21 [compound 114] | xx (activity was measured to be between 0.1 μM and 1.0 μM) | 65 to 85% | x (activity was measured to be greater than 1.0 μM) | < 65%
CCCOC(=O)N1C2CCC1CC(N1CCC3(CC1)CN(C(=O)O[C@@H]1CCOC1)c1ccc(F)cc13)C2 (some centres unmarked) [compound 115] | xxx (activity was measured to be less than 0.1 μM) | 65 to 85% | xx (activity was measured to be between 0.1 μM and 1.0 μM) | < 65%
Cc1ccc2c(c1)C1(CCN(C3CC4CCC3C4)CC1)CN2C(=O)OC(C)(C)C (centres unmarked) [compound 116] | xxx (activity was measured to be less than 0.1 μM) | 65 to 85% | xx (activity was measured to be between 0.1 μM and 1.0 μM) | < 65%
COCCOC(=O)N1CC2(CCN(C3CC4CCC(C3)N4C(=O)OCCOC)CC2)c2cc(F)ccc21 (centres unmarked) [compound 117] | xxx (activity was measured to be less than 0.1 μM) | 65 to 85% | xx (activity was measured to be between 0.1 μM and 1.0 μM) | < 65%
CC(=O)N1CC2(CCN(CC3CC4CCC3C4)CC2)c2cc(C)ccc21 (centres unmarked) [compound 118] | xxx (activity was measured to be less than 0.1 μM) | 65 to 85% | x (activity was measured to be greater than 1.0 μM) | < 65%
